Structures are written as SMILES.

This experiment deals with T1, human M4 muscarinic acetylcholine receptor (Homo sapiens, UniProt P08173).
T1 construct: expressed in transfected cells; host or cells: CHO-K1
T1 sequence (P08173 1-479): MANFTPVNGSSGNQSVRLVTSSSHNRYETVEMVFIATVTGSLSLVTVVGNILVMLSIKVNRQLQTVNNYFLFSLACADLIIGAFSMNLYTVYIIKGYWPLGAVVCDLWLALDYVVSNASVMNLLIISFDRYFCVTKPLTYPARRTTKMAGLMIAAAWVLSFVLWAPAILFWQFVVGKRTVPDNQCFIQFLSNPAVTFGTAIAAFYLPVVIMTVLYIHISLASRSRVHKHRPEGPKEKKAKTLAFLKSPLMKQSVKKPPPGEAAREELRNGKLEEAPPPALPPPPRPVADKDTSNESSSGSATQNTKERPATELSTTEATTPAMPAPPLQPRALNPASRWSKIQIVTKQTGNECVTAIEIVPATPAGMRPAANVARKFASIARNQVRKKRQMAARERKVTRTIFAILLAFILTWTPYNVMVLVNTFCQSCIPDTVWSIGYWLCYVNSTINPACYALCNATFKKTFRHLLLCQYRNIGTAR
The experiment can be described thus: human FLIPR-based M4 PAM assay, CHO-K1 cells stably transfected with human M4 receptor and chimeric G-protein Gαqi5. The experiment is classed as cell-based. The following applies: inflection point (IP) of dose response curve; acetylcholine added at 20% of maximum response; CHO-K1 human M4/Gαqi5, FLIPR Tetra. Put shortly: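 CHO-K1 cells were loaded with calcium dye at 37 °C for ~1 h. Fluorescence (ex 470–495/em 515–575 nm) was read for 4 min after test compound at increasing concentrations, then 3.5 min after acetylcholine at an EC20; sometimes a third addition at EC70 followed. The value is the inflection point of a 4-parameter logistic fit.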

`Cc1c(-c2ccoc2)ncnc1N1CCC(Oc2cccc(C#N)c2)CC1` [Example 249, 3-((1-(6-(furan-3-yl)-5-methylpyrimidin-4-yl)piperidin-4-yl)oxy)benzonitrile]: the EC50 worked out at 0.925 µM.

Consider `Cc1c(-c2ccc3c(c2)OCCO3)ncnc1N1CCC(Oc2cccc(C#N)c2)CC1` [Example 250, 3-((1-(6-(2,3-dihydrobenzo[b][1,4]dioxin-6-yl)-5-methylpyrimidin-4-yl)piperidin-4-yl)oxy)benzonitrile], for which the 50% effective concentration (EC50) came out at 1.13 µM. The figure for `COc1ccc(OC2CCN(c3ncnc(-c4cccnc4)c3C)CC2)cn1` [Example 251, 4-(4-((6-methoxypyridin-3-yl)oxy)piperidin-1-yl)-5-methyl-6-(pyridin-3-yl)pyrimidine] is 1.44 µM; for `COc1ccc(OC2CCN(c3ncnc(-c4ccoc4)c3C)CC2)cn1` [Example 252, 4-(furan-3-yl)-6-(4-((6-methoxypyridin-3-yl)oxy)piperidin-1-yl)-5-methylpyrimidine] it is 1.71 µM. The figure for `Cc1c(-c2ccc3c(=O)nc[nH]c3c2)ncnc1N1CCC(Oc2cccc(C#N)c2)CC1` [Example 253, 3-((1-(5-methyl-6-(4-oxo-1,4-dihydroquinazolin-7-yl)pyrimidin-4-yl)piperidin-4-yl)oxy)benzonitrile] is 1.74 µM; for `Cc1c(-c2ccc(F)cc2)ncnc1N1CCC(Oc2cccc(C#N)c2)CC1` [Example 254, 3-((1-(6-(4-fluorophenyl)-5-methylpyrimidin-4-yl)piperidin-4-yl)oxy)benzonitrile] it is 2.47 µM. The molecule `COc1ccc(OC2CCN(c3ncnc(CC(C)C)c3C)CC2)cn1` [Example 255, 4-isobutyl-6-(4-((6-methoxypyridin-3-yl)oxy)piperidin-1-yl)-5-methylpyrimidine] returned an EC50 of 2.52 µM. In the case of `CCCCc1ncnc(N2CCC(Oc3ccc(OC)nc3)CC2)c1C` [Example 256, 4-butyl-6-(4-((6-methoxypyridin-3-yl)oxy)piperidin-1-yl)-5-methylpyrimidine] it was 2.63 µM. In the case of `COc1ccc(OC2CCN(c3ncnc(-c4ccc(F)cc4)c3C)CC2)cn1` [Example 257, 4-(4-fluorophenyl)-6-(4-((6-methoxypyridin-3-yl)oxy)piperidin-1-yl)-5-methylpyrimidine] it was 2.7 µM. In the case of `COc1ccc(OC2CCN(c3nnc(C#N)cc3C)CC2)cn1` [Example 258, 6-(4-((6-Methoxypyridin-3-yl)oxy)piperidin-1-yl)-5-methylpyridazine-3-carbonitrile] it was 0.073 µM; in that of `Cc1cc(C#N)nnc1N1CCC(Oc2cccc(C#N)c2)CC1` [Example 259, 6-(4-(3-cyanophenoxy)piperidin-1-yl)-5-methylpyridazine-3-carbonitrile], 0.062 µM. Consider `Cc1c(C#N)nc(CO)nc1N1CCC(Oc2ccc3c(c2)C(=O)OC3)CC1` [Example 260, 2-(hydroxymethyl)-5-methyl-6-(4-((3-oxo-1,3-dihydroisobenzofuran-5-yl)oxy)piperidin-1-yl)pyrimidine-4-carbonitrile], for which the midpoint of the response, the EC50, lay at 2.56 µM.

With `CCc1ncnc(N2CCC(Oc3cccc(C#N)c3)CC2)c1C` [Example 261, 3-((1-(6-Ethyl-5-methylpyrimidin-4-yl)piperidin-4-yl)oxy)benzonitrile], the response was half-maximal at 0.425 µM (EC50). Regarding `COc1ccc(OC2CCN(c3nnc(-c4nnc(C)o4)cc3C)CC2)cn1` [Example 263, 2-(6-(4-((6-Methoxypyridin-3-yl)oxy)piperidin-1-yl)-5-methylpyridazin-3-yl)-5-methyl-1,3,4-oxadiazole], the EC50 came out at 0.251 µM. In the case of `COc1ccc(OC2CCN(c3nnc(-c4noc(C)n4)cc3C)CC2)cn1` [Example 264, 3-(6-(4-((6-Methoxypyridin-3-yl)oxy)piperidin-1-yl)-5-methylpyridazin-3-yl)-5-methyl-1,2,4-oxadiazole] it was 0.399 µM; in that of `COc1ccc(OC2CCN(c3nnc(C(=O)NCc4ccncc4)cc3C(F)F)CC2)cn1` [Example 265, 5-(Difluoromethyl)-6-(4-((6-methoxypyridin-3-yl)oxy)piperidin-1-yl)-N-(pyridin-4-ylmethyl)pyridazine-3-carboxamide], 0.585 µM.

With `Cc1cc(C(=O)NCc2ccncc2)c(N)nc1N1CCC(Oc2cccc(C#N)c2)CC1` [Example 266, 2-Amino-6-(4-(3-cyanophenoxy)piperidin-1-yl)-5-methyl-N-(pyridin-4-ylmethyl)nicotinamide], a half-maximal response (EC50) required 4.29 µM.

In the case of `COC(=O)c1cc(C)c(N2CCC(Oc3ccc4c(c3)COC4)CC2)nc1Cl` [Example 267, Methyl 2-chloro-6-(4-((1,3-dihydroisobenzofuran-5-yl)oxy)piperidin-1-yl)-5-methylnicotinate], the concentration giving a half-maximal response (EC50) amounted to 2.57 µM.
